Marks after values point to notes of the source that are not given here.
Columns and labels:
rats = details: administered orally to rats; cited from earlier work
[1] = cited from earlier work
[2] = test system: transient local cerebral ischemia animal model; assay: Cranial neuroprotective action by oral administration in transient local cerebral ischemia animal model (MCAO); format: in vivo, sprague-dawly male rats
Protocol: The measurement of cranial neuroprotective action by oral administration of a sample in the transient local cerebral ischemia animal model was carried out as follows according to a known method.
Experimental animals were 7-week-old sprague-dawly male rats having a weight of 260 to 270 g and the experimental animals were adapted in the breeding room for 7 days before use under the environment in which the contrast cycle was controlled automatically by 12 hours. The temperature of the breeding room was maintained at 23±2° C., the humidity was 55±10%, and food and water were freely ingested.
In order to measure the neuroprotective action according to the oral administration of the sample, an animal model of cerebral ischemia was created. The middle cerebral artery occlusion (MCAO) surgery was performed to create the animal model of cerebral ischemia. […]
In order to measure the neuroprotective action of the sample according to the oral administration, the brain was excised 24 hours after the middle cerebral artery occlusion and stained with 2,3,5-triphenyltetrazolium chloride. […] The area of cerebral infarction (infarct area, mm^2) was measured using a computerized image analyzer, and the infarct volume (mm^3) was calculated by multiplying the total sum of the infarct area of each section by the thickness of the section. The measured values were expressed as mean±SEM (*p<0.05, **p<0.01).

SMILES	LD50 (rats) [mg/kg]	solubility in water [1]	Cerebral infarct volume (mm^3) ([2]; 2 hours after induction of cerebral ischemia and 2 hours after reperfusion, brain excised 24 hours after MCAO, mean±SEM)	Cranial nerve protection effect (%) ([2]; 24 hours after MCAO, relative to physiological saline group)
CC(C)[C@@H]1CC[C@@H](C)C[C@H]1O (racemic) [dl-menthol]	3180	rarely dissolved in water	–	–
CC1=NN(c2ccccc2)C(=O)C1 [MCI-186]	–	–	184.2 ± 17.3** mm^3	47.71

From patent publication US11576943B2, “Functional food composition having cranial nerve protection effect and blood flow improvement effect” (chzin Co., Ltd., priority 2020, dated 2023)
